Three compounds from ChEMBL document CHEMBL5532639, “Heterocyclic pyrimidine derivatives as promising antibacterial agents” (Eur J Med Chem, 2023) can be followed below.

Converted amounts (≈) assume the structure as drawn. Where only a bound is given, the exact number is not on record here.

In general, MIC refers to the lowest concentration that inhibits growth of the organism.

For assay [1], the system named is Salmonella enterica subsp. enterica serovar Paratyphi B. As to the kind of experiment: Antibacterial activity against Salmonella paratyphi B CICC 21495 assessed as reduction in […]. The following applies: time lower 48 hrs. Type of assay: functional.
The subject of assay [2] is Staphylococcus aureus. The assay is described as follows: Antimicrobial activity against Staphylococcus aureus assessed as inhibition of microbial growth incubated for 18 hrs by CLSI protocol based Mueller-Hinton broth assay. Type of assay: functional.
The subject of assay [3] is Vibrio cholerae. As to the kind of experiment: Antibacterial activity against Vibrio cholerae assessed as reduction in bacterial growth measured after 18 to 20 hrs by broth microdilution method. Particulars: time 18-20 hrs. The format is functional.
Assay [4] relates to Shigella boydii. As to the kind of experiment: Antibacterial activity against Shigella boydii assessed as inhibition of bacterial growth measured after 18 to 20 hrs by broth microdilution method. The format is functional. Particulars: time 18-20 hrs. Background: Broth dilution looks for growth in wells or tubes with falling amounts of substance.
Assay [5] deals with Escherichia coli. The assay is described as follows: Antimicrobial activity against Escherichia coli assessed as inhibition of microbial growth incubated for 18 hrs by CLSI protocol based Mueller-Hinton broth assay. The format is functional.
The subject of assay [6] is Enterococcus faecalis. The assay is described as follows: Antimicrobial activity against Enterococcus faecalis assessed as inhibition of microbial growth incubated for 18 hrs by CLSI protocol based Mueller-Hinton broth assay. The format is functional.
For assay [7], the system named is Vibrio cholerae. The assay is described as follows: Antibacterial activity against Vibrio cholerae measured after 18 to 20 hrs by broth microdilution method. The following applies: time 18-20 hrs. The format is functional.
Assay [8] has as its system Pseudomonas aeruginosa. As to the kind of experiment: Antimicrobial activity against Pseudomonas aeruginosa assessed as inhibition of microbial growth incubated for 18 hrs by CLSI protocol based Mueller-Hinton broth assay. Type of assay: functional.
For assay [9], the system named is Vibrio parahaemolyticus. The assay is described as follows: Antibacterial activity against Vibrio parahaemolyticus assessed as reduction in bacterial growth inhibition measured after 24 hrs by Mueller Hinton Agar dilution method. The format is functional. For orientation: In agar dilution, organisms are placed on agar that contains the substance at set levels.
The test system of assay [10] is Plesiomonas shigelloides. As to the kind of experiment: Antibacterial activity against Plesiomonas shigelloides assessed as inhibition of bacterial growth measured after 18 to 20 hrs by broth microdilution method. The format is functional. Particulars: time 18-20 hrs.
In assay [11] the test system is Salmonella typhimurium. As to the kind of experiment: Antibacterial activity against Salmonella typhimurium DT104 assessed as reduction in bacterial growth inhibition measured after 24 hrs by Mueller Hinton Agar dilution method. Type of assay: functional, Salmonella enterica subsp. enterica serovar Typhimurium. The following applies: Salmonella enterica.
The subject of assay [12] is Salmonella typhimurium. As to the kind of experiment: Antimicrobial activity against Salmonella typhimurium DT104 assessed as inhibition of microbial growth incubated for 18 hrs by CLSI protocol based Mueller-Hinton broth assay. Particulars: Salmonella enterica. The format is functional, Salmonella enterica subsp. enterica serovar Typhimurium.
Assay [13] has as its system Staphylococcus epidermidis. As to the kind of experiment: Antimicrobial activity against Staphylococcus epidermidis assessed as inhibition of microbial growth incubated for 18 hrs by CLSI protocol based Mueller-Hinton broth assay. The format is functional.
Assay [14] deals with Morganella morganii. As to the kind of experiment: Antibacterial activity against Morganella morganii UM869 incubated for 16 to 18 hrs by broth microdilution method. Type of assay: functional. The following applies: time 16-18 hrs.
Assay [15] has as its system Vibrio cholerae. As to the kind of experiment: Antibacterial activity against Vibrio cholerae assessed as inhibition of bacterial growth incubated for 24 hrs by broth microdilution method. The format is functional.
In assay [16] the test system is Salmonella enterica. As to the kind of experiment: Antimicrobial activity against Salmonella enterica assessed as inhibition of microbial growth incubated for 18 hrs by CLSI protocol based Mueller-Hinton broth assay. The format is functional.
Assay [17] concerns Aeromonas hydrophila. The assay is described as follows: Antibacterial activity against Aeromonas hydrophila assessed as inhibition of microbial growth incubated for 24 hrs by CLSI protocol based Mueller-Hinton broth assay. Type of assay: functional.
Assay [18] relates to Shigella sonnei. As to the kind of experiment: Antibacterial activity against Shigella sonnei assessed as inhibition of bacterial growth measured after 18 to 20 hrs by broth microdilution method. The format is functional. Particulars: time 18-20 hrs.
Assay [19] has as its system Shigella flexneri. As to the kind of experiment: Antibacterial activity against Shigella flexneri assessed as inhibition of bacterial growth incubated for 24 hrs by broth microdilution method. Type of assay: functional.
Assay [20] concerns Citrobacter freundii. The assay is described as follows: Antibacterial activity against multidrug-resistant Citrobacter freundii assessed as bacterial growth inhibition incubated for 20 to 22 hrs by CLSI based analysis. The format is functional. Particulars: time 20-22 hrs.
In assay [21] the test system is Edwardsiella tarda. As to the kind of experiment: Antimicrobial activity against Edwardsiella tarda assessed as inhibition of microbial growth incubated for 18 hrs by CLSI protocol based Mueller-Hinton broth assay. Type of assay: functional.
The subject of assay [22] is Providencia rettgeri. As to the kind of experiment: Antibacterial activity against Providencia rettgeri assessed as bacterial growth inhibition incubated for 18 hrs by CLSI protocol based Mueller-Hinton broth assay. The format is functional.
The subject of assay [23] is Klebsiella pneumoniae. The assay is described as follows: Antimicrobial activity against Klebsiella pneumoniae assessed as inhibition of microbial growth incubated for 18 hrs by CLSI protocol based Mueller-Hinton broth assay. The format is functional.
In assay [24] the test system is Morganella morganii. As to the kind of experiment: Antibacterial activity against Morganella morganii UM573 assessed as bacterial growth inhibition incubated for 20 to 22 hrs by CLSI based analysis. The format is functional. Particulars: time 20-22 hrs.
Assay [25] relates to Proteus vulgaris. As to the kind of experiment: Antimicrobial activity against Proteus vulgaris assessed as microbial growth inhibition incubated for 24 hrs by broth microdilution method. Type of assay: functional.
Assay [26] relates to Bacillus subtilis. As to the kind of experiment: Antibacterial activity against Bacillus subtilis assessed as reduction in bacterial growth incubated for 24 hrs by CLSI protocol based Mueller-Hinton broth assay. Type of assay: functional.
In assay [27] the test system is Salmonella paratyphi. The assay is described as follows: Antibacterial activity against Salmonella paratyphi A CICC 21501 incubated overnight by standard microtiter dilution method. Type of assay: functional, Salmonella enterica subsp. enterica serovar Paratyphi A. The following applies: Salmonella enterica.
The test system of assay [28] is Enterobacter sp. The assay is described as follows: Antibacterial activity against Enterobacter sp. assessed as inhibition of bacterial growth. The format is functional.
The test system of assay [29] is Bacillus subtilis. As to the kind of experiment: Antimicrobial activity against Bacillus subtilis RCMB 010069 assessed as bacterial growth inhibition by measuring zone of inhibition at 50 ug/ml by agar cup diffusion assay. Particulars: read-out: IZ. Type of assay: functional.
In assay [30] the test system is Staphylococcus aureus. As to the kind of experiment: Antibacterial activity against Staphylococcus aureus ATCC 3750 assessed as reduction in bacterial growth. The format is functional.
Assay [31] relates to Bacillus subtilis. As to the kind of experiment: Antibacterial activity against Bacillus subtilis 6633 assessed as reduction in bacterial growth. Type of assay: functional.
For assay [32], the system named is Streptococcus pneumoniae. The assay is described as follows: Antibacterial activity against Streptococcus pneumoniae. The format is functional.
Assay [33] deals with Staphylococcus aureus. As to the kind of experiment: Antibacterial activity against Staphylococcus aureus. The format is functional.
For assay [34], the system named is Staphylococcus aureus. The assay is described as follows: Antibacterial activity against Staphylococcus aureus assessed as reduction in microbial growth by CLSI based broth microdilution method. Type of assay: functional.
Assay [35] concerns Streptococcus pyogenes. As to the kind of experiment: Antibacterial activity against Streptococcus pyogenes assessed as reduction in microbial growth by CLSI based broth microdilution method. The format is functional.
Assay [36] relates to Escherichia coli. The assay is described as follows: Antibacterial activity against Escherichia coli ATCC 25922 assessed as bacterial growth inhibition. Type of assay: functional.
Assay [37] relates to Bacillus subtilis. As to the kind of experiment: Antibacterial activity against Bacillus subtilis. Type of assay: functional.
In assay [38] the test system is Pseudomonas aeruginosa. As to the kind of experiment: Antibacterial activity against Pseudomonas aeruginosa assessed as reduction in bacterial growth by broth microdilution method. The format is functional.
In assay [39] the test system is Escherichia coli. The assay is described as follows: Antibacterial activity against Escherichia coli assessed as bacterial growth inhibition incubated for 18 hrs by CLSI protocol based Mueller-Hinton broth assay. The format is functional.
For assay [40], the system named is Salmonella typhimurium. As to the kind of experiment: Antibacterial activity against Salmonella typhimurium DT104 assessed as reduction in bacterial growth. Type of assay: functional, Salmonella enterica subsp. enterica serovar Typhimurium. The following applies: Salmonella enterica.
Assay [41] concerns Streptococcus pneumoniae. The assay is described as follows: Antimicrobial activity against Streptococcus […] assessed as bacterial growth inhibition by measuring zone of inhibition at 50 ug/ml by agar cup diffusion assay. Type of assay: functional. The following applies: read-out: IZ.
For assay [42], the system named is Bacillus subtilis. As to the kind of experiment: Antibacterial activity against Bacillus subtilis assessed as reduction in bacterial cell viability by well plate method. Type of assay: functional.
For assay [43], the system named is Pseudomonas aeruginosa. As to the kind of experiment: Antibacterial activity against Pseudomonas aeruginosa assessed as reduction in microbial growth after 18 hrs by MTT based broth dilution method. The format is functional.
Assay [44] has as its system Pseudomonas aeruginosa. The assay is described as follows: Antibacterial activity against Pseudomonas aeruginosa assessed as reduction in microbial growth by broth microdilution method. Type of assay: functional.
The subject of assay [45] is Klebsiella pneumoniae. The assay is described as follows: Antibacterial activity against Klebsiella pneumoniae assessed as reduction in bacterial growth by broth microdilution method. Type of assay: functional.
The test system of assay [46] is Escherichia coli. The assay is described as follows: Antibacterial activity Escherichia coli assessed as reduction in bacterial growth. The format is functional.
For assay [47], the system named is Staphylococcus aureus. As to the kind of experiment: Antibacterial activity against Staphylococcus aureus assessed as bacterial growth inhibition. Type of assay: functional.
In assay [48] the test system is Staphylococcus epidermidis. The assay is described as follows: Antibacterial activity against Staphylococcus epidermidis assessed as reduction in microbial growth. Type of assay: functional.
In assay [49] the test system is Escherichia coli. As to the kind of experiment: Antibacterial activity against Escherichia coli assessed as reduction in bacterial growth by broth microdilution method. Type of assay: functional.

On to `COc1cc(Cc2cnc(N)nc2N)cc(OC)c1OC` [TRIMETHOPRIM], for which the MIC was 9.76 µg/mL (≈ 33.6 µM) in assay [1]; greater than 5000 µg/mL in assay [2]; 5000 µg/mL (≈ 17200 µM) in assay [3]; 9.76 µg/mL (≈ 33.6 µM) in [4]; 19.5 µg/mL in assay [5]; 78.1 µg/mL in assay [6]. In addition, the minimal inhibitory concentration (MIC) in assay [7] was 1.22 µg/mL (≈ 4.2 µM); in assay [8] it was 5000 µg/mL; in [9] it was 2.44 µg/mL (≈ 8.4 µM); in assay [10], 4.88 µg/mL (≈ 16.8 µM); in assay [11] it was greater than 5000 µg/mL; in [12] it was 4.88 µg/mL. For the same compound, the MIC in assay [13] is greater than 5000 µg/mL; in assay [14], 156 µg/mL (≈ 538 µM); in assay [15], 39.1 µg/mL (≈ 135 µM); in assay [16], 4.88 µg/mL; in assay [17], 1250 µg/mL; in [18], 9.76 µg/mL (≈ 33.6 µM). For the same compound, the MIC in [19] was determined as 156 µg/mL (≈ 538 µM); in assay [20], 19.5 µg/mL (≈ 67.3 µM); in assay [21] it was 312 µg/mL; in assay [22], 2500 µg/mL (≈ 8610 µM); in assay [23], 5000 µg/mL; in [24], 156 µg/mL (≈ 538 µM). In addition, the MIC in assay [25] was found to be 156 µg/mL (≈ 538 µM); in assay [26], 5000 µg/mL (≈ 17200 µM); in assay [27], 156 µg/mL (≈ 538 µM); in assay [28], 156 µg/mL (≈ 538 µM).
For the compound `CC1(C)S[C@@H]2[C@H](NC(=O)[C@H](N)c3ccccc3)C(=O)N2[C@H]1C(=O)O` [AMPICILLIN], the zone of inhibition at 50 µg/mL amounted to 32.4 mm in assay [29] and 23.8 mm in assay [41]. Also, the MIC turned out to be 50 µg/mL (≈ 143 µM) in [30]; 4 µg/mL (≈ 11.4 µM) in assay [31]; 0.98 µg/mL (≈ 2.8 µM) in assay [32]; 0.49 µg/mL (≈ 1.4 µM) in assay [33]; 250 µg/mL in assay [34]; 100 µg/mL in assay [35]. The MIC in assay [36] stood at 4 µg/mL (≈ 11.4 µM); in [37], 0.49 µg/mL (≈ 1.4 µM); in assay [38], 100 µg/mL (≈ 286 µM); in assay [39] it was 100 µg/mL (≈ 286 µM); in [40] it was 49 µg/mL (≈ 140 µM).
With `COc1ccc(C2C3=C(CCCC3=O)Oc3nc(-c4cc5ccccc5oc4=O)[nH]c(=O)c32)cc1OC` (centres undefined), the MIC is 50 µg/mL (≈ 100 µM) in [42]; 50 µg/mL in [43]; 50 µg/mL in assay [44]; 50 µg/mL (≈ 100 µM) in assay [45]; 50 µg/mL (≈ 100 µM) in assay [46]; 50 µg/mL (≈ 100 µM) in [47]. Moreover, the MIC came out at 100 µg/mL in assay [48] and 12.5 µg/mL (≈ 25.1 µM) in assay [49].
